According to PMC11050599, “Novel Tetracyclic Azaphenothiazines with the Quinoline Ring as New Anticancer and Antibacterial Derivatives of Chlorpromazine” (International Journal of Molecular Sciences, 2024):

Legend:
cancer cell lines = assay: MTT assay, summary over several cell lines; type: cell-based, human; details: Homo sapiens; range over two cell lines not given; read-out: IC50 range against two tested cell lines
Procedure: The human cell lines, such as A549 (lung cancer), MDA-MB-231 (breast cancer), MiaPaca-2 (pancreatic cancer), PC3 (metastatic prostate cancer), HCT-116 (colon carcinoma), and HaCaT (immortalized keratinocytes), were sourced from the American Type Culture Collection (ATCC) in Rockville, USA. Culturing conditions varied as follows: HCT116 cells were cultured in MEM (ThermoSci, Waltham, MA, USA), A549, MDA-MB-231, MiaPaca, HaCaT cells in DMEM High Glucose and PC3 cells were cultured in RPMI (Biowest SAS, Nuaillé, France). The growth medium consisted of 10% fetal bovine serum (FBS, Sigma-Aldrich, St. Louis, MO, USA), 20 mM HEPES (Biowest, Nuaillé, France), and antibiotics (100 U/mL of penicillin and 100 μg/mL of streptomycin) from Gibco, Grand Island, NY, USA. […] These compounds were added to 96-well plates containing study cells (1 × 10^4 cells per well) and incubated for 72 h. […] Cell absorbance results were incorporated into the formula for calculating the relative MTT level (%), enabling the assessment of cell viability following exposure to the test compounds. The cell viability percentage represents the MTT reduction in cells treated with the test compounds compared to the control sample, where only the medium was added to the cells.

[1] = tested on: standard bacterial strains; assay: MIC, summary over standard bacterial strains; type: cell-based; details: Staphylococcus aureus, ATCC 29213, 25923, and 6538; S. aureus strains other than NCTC 4163; read-out: MIC against the other three strains of S. aureus
From the text: To evaluate the antibacterial effectiveness of chloroquinobenzothiazine derivatives, various bacterial strains from international microbe collections such as the American Type Culture Collection (ATCC) and the National Collection of Type Culture (NCTC) were examined, alongside a panel of clinical rods. This included two Gram-negative organisms, E. coli ATCC 25922 and P. aeruginosa ATCC 15442, and a series of six Gram-positive strains: S. aureus NCTC 4163; S. aureus ATCC 29213, 25923, and 6538; and S. epidermidis ATCC 12228 and 35984. The antimicrobial activity was examined using the Minimal Inhibitory Concentration (MIC) method, following standard CLSI procedures with slight adjustments. The MIC was determined using the two-fold serial broth microdilution method in 96-well microtitration plates containing Mueller-Hinton II broth medium (Becton Dickinson, Franklin Lakes, NJ, USA). The final inoculum for all tested bacteria was adjusted to […] (colony-forming units per milliliter). The stock solution of the tested compounds was prepared in dimethyl sulfoxide (DMSO) and diluted to a maximum of 1% solvent content with a sterile medium.

PC3 (prostate cancer) = assay: MTT assay, PC3 cells; type: cell-based, human
Outline: (§1)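 Test compounds are added to plated cells (1 × 10^4 per well) for 72 h. Cell viability is calculated as the percentage of MTT reduction compared with cells given medium alone.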

HCT116 cells = assay: Cell cycle analysis by flow cytometry, HCT116; type: cell-based, human; details: IC50, 24 h, compared to the control
Procedure: In brief, cells were seeded at a density of 1 × 10^5 cells/well on a six-well plate and allowed to adhere for 24 h. […] Both population cells (the attached and detached) were collected and centrifuged at 400× g for 5 min at 4 °C. After centrifugation, the cells were washed twice with 0.9% NaCl and subsequently fixed in 500 μL of 70 % cold ethanol overnight.
Before analysis, the fixed cells underwent another centrifugation step at 850× g for 5 min at 4 °C and were washed with PBS. Following the washes, the cells were incubated with 50 μL of RNase (100 μg/mL) and 200 μL of propidium iodide (PI) (50 μg/mL) at 37 °C for 30 min in the dark. Finally, 100 μL of PBS was added to each sample. Flow cytometry (Becton Dickinson FACS Verse, Franklin Lakes, NJ, USA) was then used to analyze the cell cycle distribution, identifying cells in various stages including sub-G1, G0/G1, S, and G2/M phases. Each assay was performed in quadruplicate.

[2] = tested on: MDA-MB-231 (breast cancer); assay: MTT assay, MDA-MB-231 cells; type: cell-based, human
Outline: as §1

[3] = SI = IC50 for normal cell line (HaCaT)/IC50 cancer cell line

IC50 (cancer cell lines): 16.1 to 16.7 µM
MIC [1]: > 128 µg/mL
IC50 (PC3 (prostate cancer); Homo sapiens, PC-3, MTT, 72 h, read-out: IC50 PC3): 16.7 ± 1.8 µM
IC50 ([2]; Homo sapiens, MDA-MB-231, MTT, 72 h, MDA-MB231, read-out: IC50 MDA): 16.7 ± 1.1 µM
Structure (SMILES): CN1CCCCC1CCN1c2cc(Cl)ccc2Sc2cc3ccccc3nc21 (stereo not shown) [Compound 11, 8-Chloro-6-(2-(1-methylpiperidin-2-yl)ethyl)-quino[3,2-b]benzo[1,4]thiazine]
SI PC3 (PC3 (prostate cancer); [3]): 0.7
increase in the cell amount at the sub-G1 phase, HCT116 (HCT116 cells): 2 fold
SI MDA [2, 3]: 0.9
